Data as given in US10323000B2, “Indole derivatives and their use in neurodegenerative diseases” (priority 2014, dated 2019).
Where two headings read alike, the source gives them in different places.

Assays:
human P2X7 receptor = human P2X7 receptor (Homo sapiens (Human), UniProt Q99572); test: Pore permeation assay (YO PRO dye uptake); assay type: cell-based
[1] = target: P2X7 (IL-1β release from THP-1 cells) (Homo sapiens (Human), UniProt Q99572); test: IL-1β release assay; assay type: cell-based
In short: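 THP-1 cells were differentiated with PMA 0.5 μM and primed 4 h with LPS 10 ng/ml. They were then pre-incubated 20 min with compound at 37° C and stimulated 30 min with BzATP 0.8 mM. Mature IL-1β released into the supernatant was quantified by sandwich ELISA.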

[2] = THP-1 cells, LPS primed, 0.8 mM BzATP, mature IL-1β by sandwich ELISA, read-out: hTHP-1/IL-ib IC50
[3] = HEK293 transfected with human P2X7, BzATP 10 uM, YO PRO dye uptake, read-out: hP2X7 IC50

Sequence of P2X7 (IL-1β release from THP-1 cells) (Q99572 whole entry): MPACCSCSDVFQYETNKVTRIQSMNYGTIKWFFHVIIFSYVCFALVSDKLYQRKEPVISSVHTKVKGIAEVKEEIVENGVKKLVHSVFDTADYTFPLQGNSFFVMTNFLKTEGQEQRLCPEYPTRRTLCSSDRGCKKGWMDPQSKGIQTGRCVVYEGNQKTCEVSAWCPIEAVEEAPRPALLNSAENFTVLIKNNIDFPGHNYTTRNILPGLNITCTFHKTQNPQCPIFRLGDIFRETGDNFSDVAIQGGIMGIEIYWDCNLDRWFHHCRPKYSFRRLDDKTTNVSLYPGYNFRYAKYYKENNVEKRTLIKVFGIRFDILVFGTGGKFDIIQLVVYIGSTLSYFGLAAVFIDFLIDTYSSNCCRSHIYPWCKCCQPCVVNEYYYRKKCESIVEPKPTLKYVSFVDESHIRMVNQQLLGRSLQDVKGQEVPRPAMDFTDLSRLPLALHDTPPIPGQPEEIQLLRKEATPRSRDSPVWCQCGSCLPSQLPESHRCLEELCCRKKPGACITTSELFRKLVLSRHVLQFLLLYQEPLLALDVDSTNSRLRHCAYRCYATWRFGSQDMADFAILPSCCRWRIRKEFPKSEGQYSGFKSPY
Sequence of human P2X7 receptor (Q99572 whole entry): as above

Row | Structure (SMILES) | IC50 (human P2X7 receptor) | IC50 [1, 2] | IC50 [1] | IC50 (human P2X7 receptor; [3])
1 | O=C(NC[C@H]1CCCC[C@H]1O)c1cn(C2COC2)c2cccc(Cl)c12 [Compound 88, cis-4-Chloro-1-oxetan-3-yl-1H-indole-3-carboxylic acid ((1R,2R)-2-hydroxy-cyclohexylmethyl)-amide] | 101 to 500 nM | > 1000 nM |  | 
2 | O=C(NCC1CCC(F)(F)CC1)c1cn(CC2CCNCC2)c2cccc(Cl)c12 [Compound 175, 4-chloro-N-((4,4-difluorocyclohexyl)methyl)-1-(piperidin-4-ylmethyl)-1H-indole-3-carboxamide] | 101 to 500 nM |  | 101 to 500 nM | 
3 | O=C(NCC1CCC(F)(F)CC1)c1cn(C[C@@H]2CCCN2)c2cccc(Cl)c12 [Compound 153, (S)-4-chloro-N-((4,4-difluorocyclohexyl)methyl)-1-(pyrrolidin-2-ylmethyl)-1H-indole-3-carboxamide] |  |  | 10 to 100 nM | < 10 nM
4 | CN1CCCC1Cn1cc(C(=O)NCC2CCC(F)(F)CC2)c2c(Cl)cccc21 (centres unmarked) [Compound 170, 4-chloro-N-((4,4-difluorocyclohexyl)methyl)-1-((1-methylpyrrolidin-2-yl)methyl)-1H-indole-3-carboxamide] | 10 to 100 nM |  | 10 to 100 nM | 
5 | O=C(NCC1(O)CCCC(F)(F)C1)c1cn(C[C@H]2CCCO2)c2cccc(Cl)c12 (stereo partly drawn) [Compound 133, 4-chloro-N-((3,3-difluoro-1-hydroxycyclohexyl)methyl)-1-(((R)-tetrahydrofuran-2-yl)methyl)-1H-indole-3-carboxamide] | 10 to 100 nM |  | 10 to 100 nM | 
6 | O=C(NCC1CCCC(C(F)(F)F)C1)c1cn(C2CCOC2)c2cccc(Cl)c12 (centres unmarked) [Compound 112, 4-Chloro-1-(tetrahydro-furan-3-yl)-1H-indole-3-carboxylic acid (3-trifluoromethyl-cyclohexylmethyl)-amide] | 10 to 100 nM |  | 101 to 500 nM | 
7 | O=C(NCC1CCC(F)(F)CC1)c1cn(C[C@@H]2CCN2)c2cccc(Cl)c12 [Compound 122, (S)-1-(azetidin-2-ylmethyl)-4-chloro-N-((4,4-difluorocyclohexyl)methyl)-1H-indole-3-carboxamide] | 10 to 100 nM |  | 10 to 100 nM | 
8 | C[C@@H]1CCC[C@](O)(CNC(=O)c2cn(C3CCOC3)c3cccc(Cl)c23)C1 (stereo partly drawn) [Compound 113, 4-chloro-N-(((1R,3R)-1-hydroxy-3-methylcyclohexyl)methyl)-1-(tetrahydrofuran-3-yl)-1H-indole-3-carboxamide] | 10 to 100 nM |  | 10 to 100 nM | 
9 | O=C(NCC1CCC(F)(F)CC1)c1cn(CC2CCO2)c2cccc(Cl)c12 (centres unmarked) [Compound 116, 4-chloro-N-((4,4-difluorocyclohexyl)methyl)-1-(oxetan-2-ylmethyl)-1H-indole-3-carboxamide] | 10 to 100 nM |  | 10 to 100 nM | 
10 | COCCn1cc(C(=O)NCC2(O)CCCC(F)(F)C2)c2c(Cl)cccc21 (centres unmarked) [Compound 37, 4-chloro-N-((3,3-difluoro-1-hydroxycyclohexyl)methyl)-1-(2-methoxyethyl)-1H-indole-3-carboxamide] | 10 to 100 nM |  | 10 to 100 nM | 
11 | CC1CC(CNC(=O)c2cn(CC3CCCN3)c3cccc(Cl)c23)CC(F)(F)C1 (centres unmarked) [Compound 157, 4-chloro-N-((3,3-difluoro-5-methylcyclohexyl)methyl)-1-(pyrrolidin-2-ylmethyl)-1H-indole-3-carboxamide] | 10 to 100 nM | < 10 nM |  | 
12 | CC1CC(F)(F)CC(O)(CNC(=O)c2cn(CC(F)(F)F)c3cccc(Cl)c23)C1 (centres unmarked) [Compound 1, 4-chloro-N-((3,3-difluoro-1-hydroxy-5-methylcyclohexyl)methyl)-1-(2,2,2-trifluoroethyl)-1H-indole-3-carboxamide] |  | > 1000 nM |  | 101 to 500 nM
13 | O=C(NCC1(O)CCC(F)(F)CC1)c1cn(CC2CCO2)c2cccc(Cl)c12 (centres unmarked) [Compound 115, 4-chloro-N-((4,4-difluoro-1-hydroxycyclohexyl)methyl)-1-(oxetan-2-ylmethyl)-1H-indole-3-carboxamide] | 101 to 500 nM |  | 101 to 500 nM | 
14 | C[C@H]1CCC[C@@](O)(CNC(=O)c2cn(C3COC3)c3cccc(Cl)c23)C1 [Compound 90, 4-chloro-N-(((1S,3S)-1-hydroxy-3-methylcyclohexyl)methyl)-1-(oxetan-3-yl)-1H-indole-3-carboxamide] |  |  | 10 to 100 nM | < 10 nM
15 | CN1CCC[C@H]1Cn1cc(C(=O)NCC2(O)CCC(F)(F)CC2)c2c(Cl)cccc21 [Compound 169, (S)-4-chloro-N-((4,4-difluoro-1-hydroxycyclohexyl)methyl)-1-((1-methylpyrrolidin-2-yl)methyl)-1H-indole-3-carboxamide] | 10 to 100 nM |  | 10 to 100 nM | 
16 | O=C(NCC1CCC(F)(F)CC1)c1cn(CCN2CCCC2=O)c2cccc(Cl)c12 [Compound 189, 4-chloro-N-((4,4-difluorocyclohexyl)methyl)-1-(2-(2-oxopyrrolidin-1-yl)ethyl)-1H-indole-3-carboxamide] | 10 to 100 nM |  | 101 to 500 nM | 

Row | Structure (SMILES) | IC50 (human P2X7 receptor) | IC50 [1, 2] | IC50 [1] | IC50 (human P2X7 receptor; [3])
17 | O=C(NCC1(O)CCC(F)(F)CC1)c1cn(CCC(F)F)c2cccc(Cl)c12 [Compound 10, 4-Chloro-1-(3,3-difluoro-propyl)-1H-indole-3-carboxylic acid (4,4-difluoro-1-hydroxy-cyclohexylmethyl)-amide] | 10 to 100 nM |  | 101 to 500 nM | 
18 | CC1CC(O)(CNC(=O)c2cn(C3CCOC3)c3cccc(Cl)c23)CCC1(F)F (centres unmarked) [Compound 106, 4-Chloro-1-(tetrahydro-furan-3-yl)-1H-indole-3-carboxylic acid (4,4-difluoro-1-hydroxy-3-methyl-cyclohexylmethyl)-amide] | 500 to 999 nM |  | 101 to 500 nM | 
19 | CC1(C)CCCC(O)(CNC(=O)c2cn(C3CCOC3)c3cccc(Cl)c23)C1 (centres unmarked) [Compound 107, 4-Chloro-1-(tetrahydro-furan-3-yl)-1H-indole-3-carboxylic acid (1-hydroxy-3,3-dimethyl-cyclohexylmethyl)-amide] | 10 to 100 nM |  | 101 to 500 nM | 
20 | CN1CC(n2cc(C(=O)NCC3(O)CCC(F)(F)CC3)c3c(Cl)cccc32)C1 [Compound 118, 4-chloro-N-((4,4-difluoro-1-hydroxycyclohexyl)methyl)-1-(1-methylazetidin-3-yl)-1H-indole-3-carboxamide] | 500 to 999 nM |  | 10 to 100 nM | 
21 | CC(C)N(C)C(=O)Cn1cc(C(=O)NCC2CCC(F)(F)CC2)c2c(Cl)cccc21 [Compound 203, 4-Chloro-1-[(isopropyl-methyl-carbamoyl)-methyl]-1H-indole-3-carboxylic acid (4,4-difluoro-cyclohexylmethyl)-amide] | 10 to 100 nM |  | 101 to 500 nM | 
22 | O=C(NC[C@]1(O)CCCC(F)(F)C1)c1cn(CCN2CCCC2=O)c2cccc(Cl)c12 [Compound 187, (S)-4-chloro-N-((3,3-difluoro-1-hydroxycyclohexyl)methyl)-1-(2-(2-oxopyrrolidin-1-yl)ethyl)-1H-indole-3-carboxamide] | 10 to 100 nM |  | 101 to 500 nM | 
23 | CC(C)N1CCCC1Cn1cc(C(=O)NCC2CCC(F)(F)CC2)c2c(Cl)cccc21 (centres unmarked) [Compound 196, 4-chloro-N-((4,4-difluorocyclohexyl)methyl)-1-((1-isopropylpyrrolidin-2-yl)methyl)-1H-indole-3-carboxamide] | 10 to 100 nM |  | 101 to 500 nM | 
24 | O=C(NCC1(O)CCCC(F)(F)C1)c1cn(CC2CCOC2)c2cccc(Cl)c12 (centres unmarked) [Compound 146, 4-chloro-N-((3,3-difluoro-1-hydroxycyclohexyl)methyl)-1-((tetrahydrofuran-3-yl)methyl)-1H-indole-3-carboxamide] | 10 to 100 nM |  | 10 to 100 nM | 
25 | O=C(NC[C@]1(O)CCCC(F)(F)C1)c1cn(C2COC2)c2cccc(Cl)c12 [Compound 85, (S)-4-chloro-N-((3,3-difluoro-1-hydroxycyclohexyl)methyl)-1-(oxetan-3-yl)-1H-indole-3-carboxamide] | 10 to 100 nM |  | 10 to 100 nM | 
26 | CC(NC(=O)c1cn(C2COC2)c2cccc(Cl)c12)[C@]12C[C@H]3C[C@H](C[C@H](C3)C1)C2 (some centres unmarked) [Compound 62, 4-Chloro-1-oxetan-3-yl-1H-indole-3-carboxylic acid (1-adamantan-1-yl-ethyl)-amide] | 10 to 100 nM |  | 10 to 100 nM | 
27 | O=C(NCC1(O)CCC(F)(F)CC1)c1cn(CC2CCCO2)c2cccc(Cl)c12 (centres unmarked) [Compound 142, 4-chloro-N-((4,4-difluoro-1-hydroxycyclohexyl)methyl)-1-((tetrahydrofuran-2-yl)methyl)-1H-indole-3-carboxamide] | 10 to 100 nM |  | 101 to 500 nM | 
28 | O=C(NCC1(O)CCC(F)(F)CC1)c1cn(C2COC2)c2cccc(Cl)c12 [Compound 92, 4-chloro-N-((4,4-difluoro-1-hydroxycyclohexyl)methyl)-1-(oxetan-3-yl)-1H-indole-3-carboxamide] | 10 to 100 nM |  | 101 to 500 nM | 
29 | O=C(NCC1CCC(F)(F)CC1)c1cn(CC(=O)N2CCOCC2)c2cccc(Cl)c12 [Compound 190, 4-Chloro-1-(2-morpholin-4-yl-2-oxo-ethyl)-1H-indole-3-carboxylic acid (4,4-difluoro-cyclohexylmethyl)-amide] |  | 101 to 500 nM |  | 101 to 500 nM
30 | O=C(NCC1(O)CCCC(F)(F)C1)c1cn(C2CCNC2)c2cccc(Cl)c12 (centres unmarked) [Compound 120, 4-chloro-N-((3,3-difluoro-1-hydroxycyclohexyl)methyl)-1-(pyrrolidin-3-yl)-1H-indole-3-carboxamide] | 10 to 100 nM |  | 10 to 100 nM | 
31 | CN(C)C(=O)Cn1cc(C(=O)NCC2CCC(F)(F)CC2)c2c(Cl)cccc21 [Compound 208, 4-Chloro-1-dimethylcarbamoylmethyl-1H-indole-3-carboxylic acid (4,4-difluoro-cyclohexylmethyl)-amide] |  |  | 10 to 100 nM | < 10 nM
